# Experimental data reported in patent US20110190834A1, “DEVICES AND METHODS FOR SUPPRESSION OF SYMPATHOEXCITATION” (priority 2010, published 2011).
# Read-outs that look alike come from different tables or passages of the source.
# How the values were obtained:
# [1] = European (EMIAT) and Canadian (CAMIAT) post-myocardial infarction studies; cited from earlier work
# [2] = Atropine test
# [3] = Heart rate and blood pressure at peak exercise and in recovery, with atropine given during exercise; assay type: in vivo, human
# Protocol: In experiments performed during development of embodiments of the present invention, the parasympathetic effects on cardiac electrophysiology during the post-exercise recovery period were studied. Subjects underwent upright bicycle exercise testing on two occasions. Continuous 12-lead ECG monitoring was performed using a commercially available system (Quest Exercise Stress System, Burdick, Deerfield Wis.) for a baseline period of 5 minutes prior to exercise. Subjects underwent a 16-minute submaximal exercise protocol on a stationary bicycle with an initial work load of 50 Watts followed by increases to 75 Watts at 4 minutes and 100 Watts at 8 minutes, as tolerated by the patient. Continuous ECG was recorded for up to 45 minutes of recovery. Blood samples for determination of plasma epinephrine and norepinephrine samples were taken during the rest period, at minutes 8 and 15 of exercise, and during the recovery period at 5, 10, 20, 30, and 45 minutes after cessation of exercise. […]
# [4] = atropine test versus baseline test
# [5] = peak exercise, iv atropine 0.04 mg/kg from minute 12 of exercise
# [6] = recovery 5 min, iv atropine 0.04 mg/kg during exercise
# [7] = recovery 10 min, iv atropine 0.04 mg/kg during exercise
# [8] = recovery 20 min, iv atropine 0.04 mg/kg during exercise
# [9] = recovery 30 min, iv atropine 0.04 mg/kg during exercise
Structure (SMILES),effect on total mortality [1],"ln(NE) mean ([2]; 30th min recovery, N=81)","ln(NE) mean ([2]; rest (before exercise and before atropine), N=90)","change in diastolic blood pressure [3, 4]","change in heart rate [3, 4]","change in systolic blood pressure [3, 4]","Diastolic BP [3, 5] [mmHg]","Systolic BP [3, 5] [mmHg]","Diastolic BP [3, 6] [mmHg]","HEART RATE [3, 6] [bpm]","Systolic BP [3, 6] [mmHg]","Diastolic BP [3, 7] [mmHg]","HEART RATE [3, 7] [bpm]","Systolic BP [3, 7] [mmHg]","Diastolic BP [3, 8] [mmHg]","HEART RATE [3, 8] [bpm]","Systolic BP [3, 8] [mmHg]","Diastolic BP [3, 9] [mmHg]","HEART RATE [3, 9] [bpm]","Systolic BP [3, 9] [mmHg]"
CCCCc1oc2ccccc2c1C(=O)c1cc(I)c(OCCN(CC)CC)c(I)c1 [Amiodarone],has not been shown to have a beneficial effect,,,,,,,,,,,,,,,,,,,
"CN1[C@@H]2CC[C@H]1C[C@@H](OC(=O)C(CO)c1ccccc1)C2 (some centres unmarked) [Atropine, atropine]",,6.31,6.38,no detectable changes,large changes in heart rate,no detectable changes,83 ± 14,162 ± 25,78 ± 9,110 ± 16,122 ± 15,78 ± 9,106 ± 16,120 ± 16,78 ± 11,102 ± 15,118 ± 14,79 ± 9,99 ± 14,117 ± 14
